# Assays:
# Assay type in all cases: cell-based
# [1] = system: Anaerococcus octavius; experiment: MIC test (growth inhibition, 96 well plates, OD)
# Procedure: (§1) The MIC test is a test on growth inhibition. Estimation of Minimum Inhibitory Concentration (MIC) is executed in 96 well plates. Through the comparison of bacterial growth with positive and negative controls via optical density (OD), different concentrations of given test substances are evaluated.
# (§2) Bacteria are cultivated under adjusted conditions based on information of the German Collection of Microorganisms and Cell Cultures (DSMZ) and stored in 50% Glycerol prior to use. Afterwards, the following method was applied: Adding growth medium (according to microorganism) to each well of the microplate. Adding the test-substances in different concentrations, positive controls (water controls only with medium) and negative controls (benchmarks according to organism). Adding the microorganism in a concentration of 10^6 CFU/ml (CFU=colony forming units). Incubation of the microplates at appropriate conditions.
# (§3) According to resulting growth, substance concentrations are labelled either as inhibiting or not and MIC is defined as the lowest concentration where a complete growth inhibition is visible. Experiments at concentration limits (highest concentration labelled as growth and lowest concentration labelled as inhibiting) are performed at least twice.
# [2] = system: Aspergillus niger; experiment: MIC test (growth inhibition, 96 well plates, OD)
# Procedure: as §1, §2, §3
# [3] = system: Candida albicans; experiment: MIC test (growth inhibition, 96 well plates, OD); settings: read-out: Minimum Inhibitory Concentration (MIC)
# Procedure: as §1, §2, §3
# [4] = system: Corynebacterium jeikeium; experiment: MIC test (growth inhibition, 96 well plates, OD); settings: read-out: Minimum Inhibitory Concentration (MIC)
# Procedure: as §1, §2, §3
# [5] = system: Corynebacterium xerosis; experiment: MIC test (growth inhibition, 96 well plates, OD)
# Procedure: as §1, §2, §3
# [6] = system: Escherichia coli; experiment: MIC test (growth inhibition, 96 well plates, OD); settings: read-out: Minimum Inhibitory Concentration (MIC)
# Procedure: as §1, §2, §3
# [7] = system: Propionibacterium acnes; experiment: MIC test (growth inhibition, 96 well plates, OD); settings: Cutibacterium acnes; read-out: Minimum Inhibitory Concentration (MIC)
# Procedure: as §1, §2, §3
# [8] = system: Staphylococcus aureus; experiment: MIC test (growth inhibition, 96 well plates, OD); settings: read-out: Minimum Inhibitory Concentration (MIC)
# Procedure: as §1, §2, §3
# [9] = system: Staphylococcus epidermidis; experiment: MIC test (growth inhibition, 96 well plates, OD)
# Procedure: as §1, §2, §3
# [10] = system: Staphylococcus hominis; experiment: MIC test (growth inhibition, 96 well plates, OD); settings: read-out: Minimum Inhibitory Concentration (MIC)
# Procedure: as §1, §2, §3
# [11] = system: Aspergillus brasiliensis; experiment: MIC and Kull synergy index of 1,2-/2,3-alkanediol mixtures; settings: single 1,2-alkanediol, read-out: MIC Component A
# [12] = system: Aspergillus brasiliensis (AB); experiment: Preservation efficacy test (PET), European Pharmacopoeia 5.1.3; settings: 0.1% in o/w emulsion
# Procedure: (§4) The preservation efficacy test (PET) was performed in accordance with European Pharmacopoeia § 5.1.3: The test is a reference European Pharmacopoeia method, that is to be used to evaluate the preservation system of a cosmetic or pharmaceutical preparation. The test consists of challenging the preparation under test, with prescribed inoculums of suitable microorganisms. The preservation porperties of the preparation are adequate if, in the conditions of the test, there is a significant fall or no increase, as appropriate, in the number of microorganisms in the inoculated preparations after the time prescribed.
# (§5) The test microorganisms which were used, are the following:
# (§6) Pseudomonas aeruginosa (PA) (bacterium); Staphylococcus aureus (SA) (bacterium); Escherichia coli (EC) (bacterium); Candida albicans (CA) (yeast); and Aspergillus brasiliensis (AB) (fungus).
# [13] = system: Candida albicans (CA); experiment: as above; settings: 0.1% in o/w emulsion
# Procedure: as §4, §5, §6
# [14] = system: Escherichia coli (EC); experiment: as above; settings: 0.1% in o/w emulsion
# Procedure: as §4, §5, §6
# [15] = system: Pseudomonas aeruginosa (PA); experiment: as above; settings: 0.1% in o/w emulsion
# Procedure: as §4, §5, §6
# [16] = system: Staphylococcus aureus (SA); experiment: as above; settings: 0.1% in o/w emulsion
# Procedure: as §4, §5, §6
# [17] = system: human sebaceous glands; experiment: Sebum production of micro-dissected, cultured human sebaceous glands (lipids/proteins after six days); set-up: sebum reduction: concentration or dose not given beside the values
# Procedure: Additional tests were performed with human sebaceous glands in order to verify the modulatory activity of different 1,2-alkanediols and 2,3-alkanediols on sebum secretion. Several microbial species on the skin are lipid dependent and feed on the human sebum (e.g. Corynebacterium, Propionibacterium). Accordingly, sebum reduction can indirectly support the reduction of microorganisms on the skin and in this way also indirectly support e.g. dandruff or acne reduction.
# For these experiments sebaceous glands had been micro-dissected and cultured with medium. The medium without any supplement served as untreated control. Medium with 5 μM Capsaicin served as positive control. Additionally, culture medium was supplemented with different concentrations of alkanediols. After six days the sebaceous glands were collected and lipids and proteins quantified. The total lipid amount being representative of sebum production was obtained by normalizing the quantified lipids upon the quantified proteins (i.e. mg of lipids/mg of proteins).
structure (smiles),measurement,setting,value
"CCCCCCCC(O)CO (stereo not drawn) [1,2-nonanediol]",MIC,[1],1000 µg/mL
same,MIC,[2],2500 µg/mL
same,MIC,[3],1000 µg/mL
same,MIC,[4],2500 µg/mL
same,MIC,[5],2500 µg/mL
same,MIC,[6],500 µg/mL
same,MIC,[7],1000 µg/mL
same,MIC,[8],1000 µg/mL
same,MIC,[9],1000 µg/mL
same,MIC,[10],1000 µg/mL
same,MIC,[11],500 µg/mL
same,number of microorganisms after 2 days,[12],"2,300,000"
same,number of microorganisms after 7 days,[12],"1,300,000"
same,number of microorganisms after 14 days,[12],"1,200,000"
same,number of microorganisms after 28 days,[12],"900,000"
same,number of microorganisms after 2 days,[13],"1,600,000"
same,number of microorganisms after 7 days,[13],"120,000"
same,number of microorganisms after 14 days,[13],890
same,number of microorganisms after 28 days,[13],1
same,number of microorganisms after 2 days,[14],"6,700"
same,number of microorganisms after 7 days,[14],1
same,number of microorganisms after 14 days,[14],1
same,number of microorganisms after 28 days,[14],1
same,number of microorganisms after 2 days,[15],1
same,number of microorganisms after 7 days,[15],1
same,number of microorganisms after 14 days,[15],1
same,number of microorganisms after 28 days,[15],1
same,number of microorganisms after 2 days,[16],"2,300"
same,number of microorganisms after 7 days,[16],1
same,number of microorganisms after 14 days,[16],1
same,number of microorganisms after 28 days,[16],1
same,sebum reduction,"[17]; compared to untreated control, six days, single donor (FIG. 4)",28%
same,concentration dependency of sebum reduction (in words),[17]; different donor (FIG. 5),experimentally confirmed
